Values quoted from earlier work in US9459262B2, “Systems and methods for determining the percentage of glycated hemoglobin” (Relia Diagnostic Systems, Inc., priority 2009, dated 2016).

details: not given

| Ionization constant (pKa) | Structure (SMILES) |
| --- | --- |
| 8.7 | COc1cccc(B(O)O)c1 [3-Methoxyphenylboronic acid] |
| 10.4 | CB(O)O [Methylboronic acid] |
| 4.0 | OB(O)c1cccnc1 [3-Pyridylboronic acid] |
| 7.1 | O=[N+]([O-])c1ccc(B(O)O)cc1 [4-Nitrophenylboronic acid] |
| 9.0 | Cc1cccc(B(O)O)c1 [3-Methylphenylboronic acid] |
| 7.2 | OB(O)c1cc(C(F)(F)F)cc(C(F)(F)F)c1 [3,5-Bis(trifluoromethyl)phenylboronic acid] |
| 8.4 | O=C(O)c1ccc(B(O)O)cc1 [4-Carboxyphenylboronic acid] |
| 9.2 | O=[N+]([O-])c1ccccc1B(O)O [2-Nitrophenylboronic acid] |
| 9.3 | COc1ccc(B(O)O)cc1 [4-Methoxyphenylboronic acid] |
| 4.0 | OB(O)c1cccc2cccnc12 [8-Quinolinylboronic acid] |

The next lines start with the compound.

| Structure (SMILES) | Ionization constant (pKa) |
| --- | --- |
| OB(O)c1ccc(Br)cc1 [4-Bromophenylboronic acid] | 8.6 |
| Cc1ccc(B(O)O)cc1 [4-Methylphenylboronic acid] | 9.3 |
| OB(O)c1cc(Cl)cc(Cl)c1 [3,5-Dichlorophenylboronic acid] | 7.4 |
| OB(O)c1ccc(F)cc1 [4-Fluorophenylboronic acid] | 9.1 |
| Cc1ccccc1B(O)O [2-Methylphenylboronic acid] | 9.7 |
| COC(=O)c1cc(B(O)O)cc([N+](=O)[O-])c1 [3-Methoxycarbonyl-5-nitrophenylboronic acid] | 6.9 |
| Cc1cc(C)cc(B(O)O)c1 [3,5-Dimethylphenylboronic acid] | 9.1 |

same assay, conditions: second value

| Ionization constant (pKa) | Structure (SMILES) |
| --- | --- |
| 8.2 | OB(O)c1cccnc1 [3-Pyridylboronic acid] |
| 10 | OB(O)c1cccc2cccnc12 [8-Quinolinylboronic acid] |
